Laboratory results as given in patent US11019818B2, “Herbicidal 3-substituted lactams” (FMC Corporation, priority 2017, dated 2021).

How the values were obtained:
Format in all cases: in vivo
[1] = system: barnyardgrass (Echinochloa crus-galli); test: Test A postemergence, barnyardgrass; conditions: 0 to 100 scale (0 no effect, 100 complete control), approx. 10 d
Source text: (§1) Seeds of plant species selected from barnyardgrass (Echinochloa crus-galli), kochia (Kochia scoparia), ragweed (common ragweed, Ambrosia elatior), ryegrass, Italian (Italian ryegrass, Lolium multiflorum), foxtail, green (green foxtail, Setaria viridis), and pigweed (Amaranthus retroflexus) were planted into a blend of loam soil and sand and treated preemergence with a directed soil spray using test chemicals formulated in a non-phytotoxic solvent mixture which included a surfactant. At the same time, plants selected from these weed species and also wheat (Triticum aestivum), corn (Zea mays), blackgrass (Alopecurus myosuroides), and galium (catchweed bedstraw, Galium aparine) were planted in pots containing the same blend of loam soil and sand and treated with postemergence applications of test chemicals formulated in the same manner. Plants ranged in height from 2 to 10 cm and were in the one- to two-leaf stage for the postemergence treatment. Treated plants and untreated controls were maintained in a greenhouse for approximately 10 d, after which time all treated plants were compared to untreated controls and visually evaluated for injury. Plant response ratings, summarized in Table A, are based on a 0 to 100 scale where 0 is no effect and 100 is complete control. A dash (-) response means no test result.

kochia (Kochia scoparia) [2] = test: Test A postemergence, kochia; conditions: 0 to 100 scale (0 no effect, 100 complete control), approx. 10 d
Source text: as §1

[3] = system: ragweed (common ragweed, Ambrosia elatior); test: Test A postemergence, ragweed; conditions: 0 to 100 scale (0 no effect, 100 complete control), approx. 10 d
Source text: as §1

[4] = system: ryegrass, Italian (Italian ryegrass, Lolium multiflorum); test: Test A postemergence, Italian ryegrass; conditions: 0 to 100 scale (0 no effect, 100 complete control), approx. 10 d
Source text: as §1

[5] = system: foxtail, green (green foxtail, Setaria viridis); test: Test A postemergence, green foxtail; conditions: 0 to 100 scale (0 no effect, 100 complete control), approx. 10 d
Source text: as §1

[6] = system: pigweed (Amaranthus retroflexus); test: Test A postemergence, pigweed; conditions: 0 to 100 scale (0 no effect, 100 complete control), approx. 10 d
Source text: as §1

[7] = system: wheat (Triticum aestivum); test: Test A postemergence, wheat; conditions: 0 to 100 scale (0 no effect, 100 complete control), approx. 10 d
Source text: as §1

corn (Zea mays) = test: Test A postemergence, corn; conditions: 0 to 100 scale (0 no effect, 100 complete control), approx. 10 d
Source text: as §1

[8] = system: blackgrass (Alopecurus myosuroides); test: Test A postemergence, blackgrass; conditions: 0 to 100 scale (0 no effect, 100 complete control), approx. 10 d
Source text: as §1

[9] = system: galium (catchweed bedstraw, Galium aparine); test: Test A postemergence, galium; conditions: 0 to 100 scale (0 no effect, 100 complete control), approx. 10 d
Source text: as §1

[10] = system: barnyardgrass (Echinochloa crus-galli); test: Test A preemergence, barnyardgrass; conditions: 0 to 100 scale (0 no effect, 100 complete control), approx. 10 d
Source text: as §1

kochia (Kochia scoparia) [11] = test: Test A preemergence, kochia; conditions: 0 to 100 scale (0 no effect, 100 complete control), approx. 10 d
Source text: as §1

[12] = system: ragweed (common ragweed, Ambrosia elatior); test: Test A preemergence, ragweed; conditions: 0 to 100 scale (0 no effect, 100 complete control), approx. 10 d
Source text: as §1

[13] = system: ryegrass, Italian (Italian ryegrass, Lolium multiflorum); test: Test A preemergence, Italian ryegrass; conditions: 0 to 100 scale (0 no effect, 100 complete control), approx. 10 d
Source text: as §1

[14] = system: foxtail, green (green foxtail, Setaria viridis); test: Test A preemergence, green foxtail; conditions: 0 to 100 scale (0 no effect, 100 complete control), approx. 10 d
Source text: as §1

[15] = system: pigweed (Amaranthus retroflexus); test: Test A preemergence, pigweed; conditions: 0 to 100 scale (0 no effect, 100 complete control), approx. 10 d
Source text: as §1

[16] = system: barnyardgrass (Echinochloa crus-galli); test: Test B flooded paddy test, barnyardgrass; conditions: Flood, 250 g ai/ha; applied to paddy water at 2-leaf stage; visual rating after 13 to 15 d; scale 0 to 100, 0 is no effect, 100 is complete control
Procedure: (§2) Plant species in the flooded paddy test selected from rice (Oryza sativa), sedge, umbrella (small-flower umbrella sedge, Cyperus difformis), ducksalad (Heteranthera limosa), and barnyardgrass (Echinochloa crus-galli) were grown to the 2-leaf stage for testing. At time of treatment, test pots were flooded to 3 cm above the soil surface, treated by application of test compounds directly to the paddy water, and then maintained at that water depth for the duration of the test. Treated plants and controls were maintained in a greenhouse for 13 to 15 d, after which time all species were compared to controls and visually evaluated. Plant response ratings, summarized in Table B, are based on a scale of 0 to 100 where 0 is no effect and 100 is complete control. A dash (-) response means no test result.

[17] = system: ducksalad (Heteranthera limosa); test: Test B flooded paddy test, ducksalad; conditions: Flood, 250 g ai/ha; applied to paddy water at 2-leaf stage; visual rating after 13 to 15 d; scale 0 to 100, 0 is no effect, 100 is complete control
Procedure: as §2

rice (Oryza sativa) = test: Test B flooded paddy test, rice; conditions: Flood, 250 g ai/ha; applied to paddy water at 2-leaf stage; visual rating after 13 to 15 d; scale 0 to 100, 0 is no effect, 100 is complete control
Procedure: as §2

[18] = system: sedge, umbrella (small-flower umbrella sedge, Cyperus difformis); test: Test B flooded paddy test, umbrella sedge; conditions: Flood, 250 g ai/ha; applied to paddy water at 2-leaf stage; visual rating after 13 to 15 d; scale 0 to 100, 0 is no effect, 100 is complete control
Procedure: as §2

| SMILES | Plant response rating, Barnyardgrass ([1]; 31 g ai/ha) | Plant response rating, Barnyardgrass ([1]; 125 g ai/ha) | Plant response rating, Kochia (kochia (Kochia scoparia) [2]; 31 g ai/ha) | Plant response rating, Kochia (kochia (Kochia scoparia) [2]; 125 g ai/ha) | Plant response rating, Ragweed ([3]; 31 g ai/ha) | Plant response rating, Ragweed ([3]; 125 g ai/ha) | Plant response rating, Ryegrass, Italian ([4]; 31 g ai/ha) | Plant response rating, Ryegrass, Italian ([4]; 125 g ai/ha) | Plant response rating, Foxtail, Green ([5]; 31 g ai/ha) | Plant response rating, Foxtail, Green ([5]; 125 g ai/ha) | Plant response rating, Pigweed ([6]; 31 g ai/ha) | Plant response rating, Pigweed ([6]; 125 g ai/ha) | Plant response rating, Wheat ([7]; 31 g ai/ha) | Plant response rating, Wheat ([7]; 125 g ai/ha) | Plant response rating, Corn (corn (Zea mays); 31 g ai/ha) | Plant response rating, Corn (corn (Zea mays); 125 g ai/ha) | Plant response rating, Blackgrass ([8]; 31 g ai/ha) | Plant response rating, Blackgrass ([8]; 125 g ai/ha) | Plant response rating, Galium ([9]; 31 g ai/ha) | Plant response rating, Galium ([9]; 125 g ai/ha) | further results |
| --- | --- | --- | --- | --- | --- | --- | --- | --- | --- | --- | --- | --- | --- | --- | --- | --- | --- | --- | --- | --- | --- |
| CC(=O)[C@@]1(C(=O)Nc2cccc(F)c2F)C(=O)N(C)C[C@@H]1c1ccc(C(F)(F)F)cc1 [Compound 1, (3S,4R)-3-acetyl-N-(2,3-difluorophenyl)-1-methyl-2-oxo-4-[4-(trifluoromethyl)phenyl]-3-pyrrolidinecarboxamide] | 70 | 90 | 20 | 70 | 0 | 40 | 60 | 80 | 50 | 90 | 30 | 80 | 20 | 50 | 20 | 80 | 0 | 50 | 50 | 60 | Plant response rating, Barnyardgrass ([10]; 31 g ai/ha): 80; Plant response rating, Barnyardgrass ([10]; 125 g ai/ha): 90; Plant response rating, Kochia (kochia (Kochia scoparia) [11]; 31 g ai/ha): 40; Plant response rating, Kochia (kochia (Kochia scoparia) [11]; 125 g ai/ha): 80; Plant response rating, Ragweed ([12]; 31 g ai/ha): 20; Plant response rating, Ragweed ([12]; 125 g ai/ha): 70; Plant response rating, Ryegrass, Italian ([13]; 31 g ai/ha): 30; Plant response rating, Ryegrass, Italian ([13]; 125 g ai/ha): 60; Plant response rating, Foxtail, Green ([14]; 31 g ai/ha): 90; Plant response rating, Foxtail, Green ([14]; 125 g ai/ha): 90; Plant response rating, Pigweed ([15]; 31 g ai/ha): 50; Plant response rating, Pigweed ([15]; 125 g ai/ha): 90; Plant response rating, Barnyardgrass [16]: 70; Plant response rating, Ducksalad [17]: 90; Plant response rating, Rice (rice (Oryza sativa)): 0; Plant response rating, Sedge, Umbrella [18]: 0 |
| CC(=O)OC[C@@]1(C(=O)Nc2cccc(F)c2F)C(=O)N(C)C[C@@H]1c1ccc(C(F)(F)F)cc1 [Compound 2, (3S,4R)-3-[(acetyloxy)methyl]-N-(2,3-difluorophenyl)-1-methyl-2-oxo-4-[4-(trifluoromethyl)phenyl]-3-pyrrolidincarboxamide] | 0 | 50 | 0 | 40 | 0 | 40 | 20 | 50 | 20 | 70 | 20 | 40 | 0 | 20 | 0 | 40 | 0 | 10 | 0 | 40 | Plant response rating, Barnyardgrass ([10]; 31 g ai/ha): 50; Plant response rating, Barnyardgrass ([10]; 125 g ai/ha): 80; Plant response rating, Kochia (kochia (Kochia scoparia) [11]; 31 g ai/ha): 20; Plant response rating, Kochia (kochia (Kochia scoparia) [11]; 125 g ai/ha): 50; Plant response rating, Ragweed ([12]; 31 g ai/ha): 0; Plant response rating, Ragweed ([12]; 125 g ai/ha): 30; Plant response rating, Ryegrass, Italian ([13]; 31 g ai/ha): 0; Plant response rating, Ryegrass, Italian ([13]; 125 g ai/ha): 10; Plant response rating, Foxtail, Green ([14]; 31 g ai/ha): 60; Plant response rating, Foxtail, Green ([14]; 125 g ai/ha): 90; Plant response rating, Pigweed ([15]; 31 g ai/ha): 20; Plant response rating, Pigweed ([15]; 125 g ai/ha): 80; Plant response rating, Barnyardgrass [16]: 65; Plant response rating, Ducksalad [17]: 95; Plant response rating, Rice (rice (Oryza sativa)): 30; Plant response rating, Sedge, Umbrella [18]: 0 |
| CN1C[C@H](c2ccc(C(F)(F)F)cc2)[C@](CO)(C(=O)Nc2cccc(F)c2F)C1=O [Compound 4, (3S,4R)—N-(2,3-difluorophenyl)-3-(hydroxymethyl)-1-methyl-2-oxo-4-[4-(trifluoromethyl)phenyl]-3-pyrrolidinecarboxamide] | 0 | 60 | 0 | 60 | 0 | 0 | 0 | 50 | 10 | 60 | 30 | 70 | 0 | 20 | 0 | 50 | 0 | 40 | 20 | 40 | Plant response rating, Barnyardgrass ([10]; 31 g ai/ha): 30; Plant response rating, Barnyardgrass ([10]; 125 g ai/ha): 90; Plant response rating, Kochia (kochia (Kochia scoparia) [11]; 31 g ai/ha): 0; Plant response rating, Kochia (kochia (Kochia scoparia) [11]; 125 g ai/ha): 40; Plant response rating, Ragweed ([12]; 31 g ai/ha): 0; Plant response rating, Ragweed ([12]; 125 g ai/ha): 0; Plant response rating, Ryegrass, Italian ([13]; 31 g ai/ha): 0; Plant response rating, Ryegrass, Italian ([13]; 125 g ai/ha): 50; Plant response rating, Foxtail, Green ([14]; 31 g ai/ha): 50; Plant response rating, Foxtail, Green ([14]; 125 g ai/ha): 90; Plant response rating, Pigweed ([15]; 31 g ai/ha): 0; Plant response rating, Pigweed ([15]; 125 g ai/ha): 90; Plant response rating, Barnyardgrass [16]: 50; Plant response rating, Ducksalad [17]: 95; Plant response rating, Rice (rice (Oryza sativa)): 0; Plant response rating, Sedge, Umbrella [18]: 0 |
| CN1C[C@H](c2ccc(C(F)(F)F)cc2)[C@@](CO)(C(=O)Nc2cccc(F)c2F)C1=O [Compound 5, (3R,4R)—N-(2,3-difluorophenyl)-3-(hydroxymethyl)-1-methyl-2-oxo-4-[4-(trifluoromethyl)phenyl]-3-pyrrolidinecarboxamide] | 30 | 80 | 30 | 70 | 0 | 40 | 20 | 50 | 30 | 80 | 30 | 50 | 0 | 30 | 0 | 60 | 0 | 30 | 40 | 40 | Plant response rating, Barnyardgrass ([10]; 31 g ai/ha): 80; Plant response rating, Barnyardgrass ([10]; 125 g ai/ha): 90; Plant response rating, Kochia (kochia (Kochia scoparia) [11]; 31 g ai/ha): 0; Plant response rating, Kochia (kochia (Kochia scoparia) [11]; 125 g ai/ha): 60; Plant response rating, Ragweed ([12]; 31 g ai/ha): 0; Plant response rating, Ragweed ([12]; 125 g ai/ha): 60; Plant response rating, Ryegrass, Italian ([13]; 31 g ai/ha): 10; Plant response rating, Ryegrass, Italian ([13]; 125 g ai/ha): 80; Plant response rating, Foxtail, Green ([14]; 31 g ai/ha): 70; Plant response rating, Foxtail, Green ([14]; 125 g ai/ha): 90; Plant response rating, Pigweed ([15]; 31 g ai/ha): 0; Plant response rating, Pigweed ([15]; 125 g ai/ha): 60; Plant response rating, Barnyardgrass [16]: 65; Plant response rating, Ducksalad [17]: 90; Plant response rating, Rice (rice (Oryza sativa)): 25; Plant response rating, Sedge, Umbrella [18]: 0 |
